# Article PMC7845544 (Frontiers in Pharmacology, 2021)
# Values joined by “and” are separate entries in the source; they are usually repeats but may differ in a detail not shown here. Equal entries are not always repeated. “Also recorded” adds a separate entry of the source. Where two headings read alike, the source gives them in different places.
# What was measured:
# Rat pharmacokinetics = type: in vivo; details: for Rat PK %F: oral bioavailability
# Method: […] Blood samples were collected at serial time points from 5 min to 24 h. The circulating concentrations of the compound in plasma samples were analyzed by HPLC. PK parameters were determined with Phoenix WinNonlin software (Pharsight Corporation, Sunnyvale, CA, United States) using a non-compartmental model.
# hTSHR = molecular target: T1, hTSHR (Homo sapiens, UniProt P16473); assay: cAMP (HTRF) in CHO cells transfected with hTSHR; type: cell-based; details: for Ratio of EC50 TSHR/FSHR: CHO assays; for EC50: compounds in presence of EC20 ligand (Figure 1 legend); for EC50 / % Response, CHO-hTSHR: mean ± SEM; for % Response, CHO-hTSHR: maximal cAMP vs maximal response of TSH
# T1 construct: expressed in transfected cells
# T1 sequence (P16473 21-764): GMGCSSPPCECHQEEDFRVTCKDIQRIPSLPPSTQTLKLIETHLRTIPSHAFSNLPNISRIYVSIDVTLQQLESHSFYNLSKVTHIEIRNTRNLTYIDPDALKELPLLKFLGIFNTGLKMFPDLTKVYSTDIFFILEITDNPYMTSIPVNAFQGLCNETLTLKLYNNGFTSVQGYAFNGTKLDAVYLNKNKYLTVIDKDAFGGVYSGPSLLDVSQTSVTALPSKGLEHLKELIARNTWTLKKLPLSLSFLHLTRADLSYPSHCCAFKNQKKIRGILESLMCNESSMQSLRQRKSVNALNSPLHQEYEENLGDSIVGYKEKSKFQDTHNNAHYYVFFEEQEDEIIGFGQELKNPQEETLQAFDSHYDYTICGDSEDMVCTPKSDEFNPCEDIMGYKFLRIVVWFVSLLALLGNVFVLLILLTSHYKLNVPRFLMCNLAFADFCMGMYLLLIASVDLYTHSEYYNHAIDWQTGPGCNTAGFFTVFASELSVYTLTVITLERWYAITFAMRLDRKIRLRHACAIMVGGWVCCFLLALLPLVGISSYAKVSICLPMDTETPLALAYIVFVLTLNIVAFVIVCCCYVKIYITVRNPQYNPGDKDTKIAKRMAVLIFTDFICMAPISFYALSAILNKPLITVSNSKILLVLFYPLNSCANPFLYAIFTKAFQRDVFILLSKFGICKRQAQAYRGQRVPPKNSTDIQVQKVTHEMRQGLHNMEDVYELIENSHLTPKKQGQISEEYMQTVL
# Method: (§1) Chinese hamster ovary (CHO) cells transfected with hFSHR, hLHR or hTSHR were grown as described previously ([Kelton et al., 1992]; [Persani et al., 1993]; [Yu et al., 2014]). In brief, CHO-hFSHR and CHO-hTSHR were maintained in DMEM/F12 + 10% FBS in T150 culture flasks. The cells were cultured until they reached 70–80% confluence (three days) and were then used for assays or passaged. CHO-hLHR ([van de Lagemaat et al., 2009]; [Sriraman et al., 2014]) was cultured in MEM alpha (++) +10% FBS and G418, and passaged every three days. CHO-hFSHR or −hLHR or −hTSR cells (2,500/well) were plated in 5 µL of phenol red free DMEM/F12 + 1% FBS in 384 well solid white low volume plates (Greiner 784075) by Multidrop. […] The plates were incubated at 37°C for 1 h. After the incubation period, cAMP was measured by HTRF® (homogeneous time-resolved fluorescence) assay (CisBio, Bedford, MA). In brief, conditioned media were incubated with cryptate-labeled cAMP antibody and d2-labeled cAMP in lysis buffer for 1 h. Free cAMP produced by cells competes with cAMP-d2 for binding to the anti-cAMP cryptate. An increase in cellular cAMP leads to a decrease in fluorescence resonance energy transfer, which is detectable as a decrease in the emission at 665 nm, measured by Envision fluorescence reader (PerkinElmer, Waltham, MA). The readout was calculated fluorescence ratio (665/620 nm). Values given in percent (%) indicate the percent response at a certain concentration of agonist relative to the maximum response of the protein ligand standard.
# hLH/CGR = molecular target: T2, hLH/CGR (Homo sapiens, UniProt P22888); assay: cAMP (HTRF) in CHO cells transfected with hLH/CGR; type: cell-based; details: for EC50: compounds in presence of EC20 ligand (Figure 1 legend); for EC50 / % Response, CHO-hLH/CGR: mean ± SEM; for % Response, CHO-hLH/CGR: maximal cAMP vs maximal response of hCG
# T2 construct: expressed in transfected cells
# T2 sequence (P22888 27-699): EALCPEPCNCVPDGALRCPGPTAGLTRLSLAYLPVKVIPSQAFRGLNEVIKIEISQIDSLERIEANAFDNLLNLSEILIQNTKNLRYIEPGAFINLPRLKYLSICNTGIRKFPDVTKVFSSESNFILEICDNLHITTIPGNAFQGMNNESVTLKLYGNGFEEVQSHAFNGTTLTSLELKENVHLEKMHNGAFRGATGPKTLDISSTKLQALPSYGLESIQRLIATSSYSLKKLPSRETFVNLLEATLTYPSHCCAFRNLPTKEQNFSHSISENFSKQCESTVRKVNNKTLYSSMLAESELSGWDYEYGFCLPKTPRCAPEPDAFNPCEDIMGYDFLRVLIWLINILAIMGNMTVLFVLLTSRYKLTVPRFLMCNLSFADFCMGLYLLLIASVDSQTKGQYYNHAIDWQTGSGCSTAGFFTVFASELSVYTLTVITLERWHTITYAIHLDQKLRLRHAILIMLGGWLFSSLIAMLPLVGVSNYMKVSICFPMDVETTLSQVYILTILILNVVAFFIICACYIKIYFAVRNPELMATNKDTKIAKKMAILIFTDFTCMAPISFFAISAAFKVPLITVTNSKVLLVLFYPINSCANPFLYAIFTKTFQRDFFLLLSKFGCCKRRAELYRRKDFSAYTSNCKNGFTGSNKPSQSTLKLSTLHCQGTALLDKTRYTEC
# Method: as §1
# Adenosine A3 receptor = details: dose response
# [1] = microsomes
# [2] = microsomes; remark: listed apart in the source
# mammalian cell = assay: Chromosomal aberrations, micronucleus test (MNT); type: cell-based
# rat granulosa cells = assay: Rat granulosa cell assay measuring secreted estradiol; type: cell-based; details: for % Response, estradiol, +EC20 FSH / EC50 / % Response, estradiol, No FSH: 24 h, mean ± SEM; for fold improvement of EC50 for estradiol production by low concentration of rec-hFSH: rec-hFSH 0.2 pM
# Method: All animals were maintained and handled under IACUC approved procedures at the respective institutions providing contracted service for TocopheRx, following procedures previously approved by local (MA, United States) IACUC reviews ([Sriraman et al., 2014]; [Yu et al., 2014]). Ovarian follicular granulosa cells were isolated from rats implanted with DES pellets (1 mg/day; 7-days release) at ChemPartner (Shanghai, China). The pellets were implanted subcutaneously on 22 day old rats with trochar, employing aseptic techniques after isoflurane anesthesia. Animals were euthanized on post-op day 3, ovaries were excised, cleaned, and granulosa cells were isolated by repeated disruption of the follicle as described previously. Granulosa cells isolated from four to five rats were used to culture one 96-well plate and an equal number of cells was plated in each well. The cells were cultured overnight at 37°C in media containing 5% FBS.
# After overnight culture, the media was replaced with serum free media containing 0.1% BSA and 100 nM androstenedione. […] After 24 h of treatment, supernatant was collected and estradiol concentration was determined by ELISA (DRG, Mountainside, NJ, United States). The optical densities of the estradiol ELISA were measured by Spectramax (Sunnyvale, CA, United States). The values were analyzed in Microsoft Excel and Graphpad Prism (San Diego, CA, United States).
# mouse oocytes = assay: Oocyte quality, IVF and embryo development in mice; type: in vivo
# Method: Developmental competence of oocytes was determined in mice, as described previously ([Sriraman et al., 2014]). Mice were superovulated with FSH or FSH + TOP5300. […] To measure nuclear status, oocytes were assessed for perivitelline space and first polar body extrusion by phase contrast inverted microscopy. Oocyte maturity was determined by presence of a polar body reflecting oocytes in metaphase-II (MII). Oocytes without a first polar body were assessed as metaphase-I (MI). After the evaluations, oocytes were incubated for 2 h in the media before use in IVF as described ([Sriraman et al., 2014]). Briefly, oocytes were placed in fertilization media (Research Fertilization Media, Cook Medical, Bloomington, IN, United States) under paraffin oil (Calbiochem, San Diego, CA, United States) and incubated at 37°C in 6% CO2, 5% O2 and 89% N2 for 5–6 h with spermatozoa. Spermatozoa were collected from the cauda epididymis of male C57BL/6J mice and were previously incubated for 1 h in fertilization media prior to use (Research Fertilization Media; Cook Medical, Bloomington, IN) for sperm capacitation. The putative zygotes were then washed and placed in 20 μL drops of culture media (Research Cleave Media; Cook Medical, Bloomington, IN, United States) in Petri dishes, or in 60 μL of culture media in Primo Vision microwell group culture dishes (Vitrolife, Gothenberg, Sweden) and checked for fertilization/cleavage the next morning. Embryos were then cultured in the incubator for an additional 3 days to the blastocyst stage and the blastocyst development rate was recorded.
# [3] = microsomes; remark: listed apart in the source
# CYP3A4 [4] = molecular target: T3, CYP3A4 (Homo sapiens, UniProt P08684); assay: CYP time dependent inhibition; type: in vitro ADME
# T3 sequence (P08684 whole entry): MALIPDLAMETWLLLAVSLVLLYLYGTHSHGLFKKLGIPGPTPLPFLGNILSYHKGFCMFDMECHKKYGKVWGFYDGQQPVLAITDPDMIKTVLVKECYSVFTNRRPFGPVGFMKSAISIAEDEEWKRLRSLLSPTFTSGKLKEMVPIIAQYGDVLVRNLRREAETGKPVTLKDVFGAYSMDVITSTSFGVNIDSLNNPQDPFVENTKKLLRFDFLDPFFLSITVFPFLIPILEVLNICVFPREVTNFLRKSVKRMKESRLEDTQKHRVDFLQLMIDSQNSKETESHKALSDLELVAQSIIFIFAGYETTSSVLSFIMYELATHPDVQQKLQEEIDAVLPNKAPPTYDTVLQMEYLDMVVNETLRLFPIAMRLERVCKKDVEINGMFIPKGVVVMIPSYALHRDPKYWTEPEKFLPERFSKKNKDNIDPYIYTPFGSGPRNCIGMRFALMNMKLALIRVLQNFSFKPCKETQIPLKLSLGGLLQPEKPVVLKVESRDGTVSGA
# Mouse pharmacokinetics = type: in vivo; details: 5 mg/kg; for Mouse PK F%: oral bioavailability
# CYP3A4 [5] = molecular target: T3, CYP3A4; assay: Cytochrome P450 inhibition; type: in vitro ADME; details: b51 words it as 52% of vehicle
# [6] = +EC20 FSH, read-out: EC50 (M), estradiol, +EC20 FSH
# [7] = No FSH, read-out: EC50 (M), estradiol, No FSH
# [8] = rec-hFSH + TOP5300, 30, 100 mg/kg
SMILES,Ratio of EC50 TSHR/FSHR (hTSHR),EC50 (hTSHR) [nM],"% Response, CHO-hTSHR (hTSHR) [%]",EC50 (hLH/CGR) [nM],"% Response, CHO-hLH/CGR (hLH/CGR) [%]","Clint, monkey [1] [µl/min/mg protein]","Clint, rat [2] [µl/min/mg protein]","% Response, estradiol, +EC20 FSH (rat granulosa cells; +EC20 FSH) [%]",EC50 (rat granulosa cells; [6]) [M],"% Response, estradiol, No FSH (rat granulosa cells; No FSH) [%]",EC50 (rat granulosa cells; [7]) [M],fold improvement of EC50 for estradiol production by low concentration of rec-hFSH (rat granulosa cells) [fold],"Clint, human [3] [µl/min/mg protein]",CYP TDI (3A4) (CYP3A4 [4]),Mouse PK AUC (Mouse pharmacokinetics),Mouse PK Cmax (Mouse pharmacokinetics),Mouse PK T1/2 (Mouse pharmacokinetics) [h],Mouse PK F% (Mouse pharmacokinetics) [%],also measured
COc1cc2c(cc1-c1cnn(CCO)c1)-c1c(c(C(=O)N(C)C(C)(C)C)nn1-c1cc(Cl)cc(Cl)c1)CO2 [TOP5300],52,505,84.97 ± 0.85,56.7,95.68 ± 0.37,165,11,125 ± 12,1.75e-07,65 ± 6,8.68e-07,2,37,Negative,"5,533 ng*h/ml","1,133 ng/ml",2.5,22,"Rat PK AUC (Rat pharmacokinetics; 10 mg/kg): 2,655 ng*h/ml; Rat PK Cmax (Rat pharmacokinetics; 10 mg/kg): 237 ng/mL; Rat PK T1/2 (Rat pharmacokinetics; 10 mg/kg): 5.1 h; Rat PK %F (Rat pharmacokinetics; 10 mg/kg): 20%; selectivity / safety margin compared to FSHR, A3(h) (Adenosine A3 receptor): over 400 fold; Micronucleus Test (MNT) result (mammalian cell): N e g a tiv e; also recorded: inactive; % of M2 oocytes (mouse oocytes; 30 mg/kg with low dose FSH): comparable to FSH and PMSG; M1/M2 oocytes relative to FSH and PMSG group (mouse oocytes; 100 mg/kg): fewer mature oocytes (M2 oocytes) and more M1 oocytes; fertilization rates vs rec-hFSH-treated mice (mouse oocytes; [8]): no differences; hatched blastocyst rates vs rec-hFSH-treated mice (mouse oocytes; [8]): no differences"
COc1cc(C(N)=O)cc(-c2cc3c(cc2OC)OCc2c(C(=O)N(C)C(C)(C)C)nn(-c4cc(Cl)cc(Cl)c4)c2-3)n1 [TOP5668],77,170,92.28 ± 0.88,176,96.64 ± 0.61,117,7,117 ± 8,7.33e-08,93,1.82e-07,2,20,Negative,"2,494 ng*h/ml",312 ng/mL,3.57,26,"fold lower exposure than TOP5300 (Rat pharmacokinetics; mature rat pharmacokinetic models): 3-4 fold; Rat PK AUC (Rat pharmacokinetics; 5 mg/kg): 1,530 ng*h/ml; Rat PK Cmax (Rat pharmacokinetics; 5 mg/kg): 132 ng/mL; Rat PK T1/2 (Rat pharmacokinetics; 5 mg/kg): 2.4 h; Rat PK %F (Rat pharmacokinetics; 5 mg/kg): 5% and 5.4%; Ratio of EC50 LHR/FSHR (hLH/CGR; CHO assays): 80; CYP inh @ 10 µM, CYP3A4 (midazolam) (CYP3A4 [5]): CYP3A4 (midazolam) = 50.6%; fold more potent than TOP5300, rat granulosa cells (rat granulosa cells; estradiol production): 5 fold"
